Columns and labels:
[1] = Measurement of redox potential (DTT redox buffers, HPLC); format: physicochemical; settings: DTT(Red)/DTT(Ox) redox buffers, 3 h, 30° C., 50% reduction of test compound
Procedure: A test compound (10 mM) was diluted 20-fold with each redox buffer solution and incubated for 3 h in a 30° C. water bath. Then, compounds were analyzed by HPLC. The area of peaks corresponding to the oxidized and reduced forms of test compound based on specific retention time was calculated and plotted as percent of total peak area against the Nernst equation value (mV) at x-axis. The Nernst equation value corresponding to 50% reduction of test compound was set as the midpoint redox potential value for test compound.
The redox potential values of the test compounds were analyzed based on the potential values established in redox buffer solutions where reduced and oxidized DTT are mixed at various ratios.

[2] = tested on: yeast thioredoxin (Trx)/yeast Trx reductase (TR); assay: Peroxidase activity assay (H2O2 reduction, NADPH oxidation); format: biochemical; settings: 50 μM test compound, 3 μM yeast Trx, 1.5 μM yeast TR, 250 μM NADPH, 1.2 mM H2O2, 30° C.; NADPH oxidized per minute
Procedure: Hydrogen peroxide (H2O2)-reducing peroxidase activity of compounds in present invention was performed as follows. Peroxyredoxin activity was measured in reaction mixture (200 μL volume) containing 50 mM HEPES buffer (pH 7.0), 1 mM EDTA, 250 μM NADPH, 3 μM yeast thioredoxin (Trx), 1.5 μM yeast Trx reductase (TR), 50 μM test compound, and 1.2 mM H2O2.
Reaction was initiated by adding H2O2 and the decrease in absorbance at 340 nm was measured using Agilent UV8453 spectrophotometry (Hewlett Packard, USA) at 30° C. for 12 min. Initial reaction rate is the amount of NADPH oxidized per minute calculated from slope of the linear part of curve.
The H2O2-reducing peroxidase activity of the test compounds in present invention was measured in a reaction mixture containing thioredoxin (Trx)/thioredoxin reductase (TR), respectively.

[3] = tested on: Tyr 857 phosphorylation of PDGF receptor-β (PDGFRβ) in HASMC; assay: Immunoblot of PDGF-mediated signaling in PrxII knock-down HASMC; format: cell-based, human; settings: HASMC depleted of PrxII expression, FIG. 2
Procedure: (§1) Cells were quickly washed in ice-cold phosphate-buffered saline (PBS) and lysed in extraction buffer containing 20 mM Hepes (pH 7.0), 1% Triton X-100, 150 mM NaCl, 10% glycerol, 1 mM EDTA, 2 mM EGTA, and 1 mM DTT, 5 mM Na3VO4, 5 mM NaF, 1 mM AEBSF, aprotinin (5 μg/mL), and leupeptin (5 μg/mL). After cen-trifugation at 12,000×g, the clarified cell extracts were used for immunoblotting. For re-blotting, the immunoblots were retrieved in a solution of 67 mM Tris (pH 6.7), 2% SDS, and 100 mM 2-mercaptoethanol at 60° C. for 30 min to remove antibodies and rinsed three times with a Tris-buffered saline (TBS) solution containing 1% Triton X-100. The retrieved membranes were subjected to new immunoblotting.
In human aortic smooth muscle cell (HASMC) and human pulmonary artery smooth muscle cell (PASMC) in which PrxII was knocked out by transfecting the PrxII siRNA, the ability of test compounds to replace the cellular function of PrxII was evaluated. That is, the efficacy of the new compounds was verified in terms of signaling pathways induced by PDGF that regulates the growth and migration of vascular smooth muscle cells in the aorta and pulmonary artery. Activation of PDGF-induced signaling pathway was analyzed by an immunoblot method using an antibody that specifically recognizes phosphorylation of Tyr 857, which is a major phosphorylation site on PDGF receptor (PDGFRβ).

[4] = tested on: human aortic smooth muscle cell (HASMC); assay: PDGF-induced proliferation assay, HASMC (PrxII siRNA); format: cell-based; settings: for Degree of HASMC proliferation: PDGF-BB 25 ng/mL, percent of untreated control
Procedure: (§2) HASMCs and PASMCs were transfected with a PrxII-specific siRNA using RNAi MAX transfection reagent according to manufacturer's protocol. After 24 hours, transfected cells (3,000 cells/well) were seeded in a 96-well culture plate. At 12 h after seeding, cells were serum-starved for additional 18 h in SmBM basal medium containing 0.5% FBS. Test compounds were serially diluted with the same basal medium containing 0.5% FBS, added to the cells ([…]), and incubated for 2 h. After treatment, cells were placed in fresh SmBM medium containing 0.5% FBS and PDGF-BB (25 ng/mL) for growth factor stimulation and further cultured for 24 h.
(§3) The degree of cell proliferation was measured using the Cell Titer-GLO kit ([…]). Data are the percent of luminescence intensity averaged from three replicate wells versus that of untreated control group.
(§4) In human aortic smooth muscle cell (HASMC) and human pulmonary artery smooth muscle cell (PASMC) in which PrxII was knocked out by transfecting the PrxII siRNA, the ability of test compounds to inhibit the PDGF-induced proliferation of vascular smooth muscle cells was evaluated. In Table 6, the degree of proliferation in the compound-treated groups is expressed as percent of the degree of proliferation in untreated control group. The concentrations of test compounds corresponding to 50% growth inhibition (IC50) is also listed.

[5] = tested on: Tyr 1175 phosphorylation of VEGF receptor-2 (VEGFR2) in HAEC; assay: Immunoblot of VEGF-mediated signaling in PrxII knock-down HAEC; format: cell-based, human; settings: HAECs depleted of PrxII expression, FIG. 5
Procedure: as §1
In human aortic endothelial cell (HAEC) and human pulmonary artery endothelial cell (PAEC) in which PrxII was knocked out by transfecting the PrxII siRNA, the ability of test compounds to replace the cellular function of PrxII was evaluated. That is, the efficacy of the new compounds was verified in terms of signaling pathways induced by VEGF that regulates the growth and migration of vascular endothelial cells in the aorta and pulmonary artery. Activation of VEGF-induced signaling pathway was analyzed by an immunoblot method using an antibody that specifically recognizes phosphorylation of Tyr 1175, which is a major phosphorylation site on VEGF receptor-2 (VEGFR2).

[6] = tested on: human pulmonary artery smooth muscle cell (PASMC); assay: PDGF-induced proliferation assay, PASMC (PrxII siRNA); format: cell-based; settings: for Degree of PASMC proliferation: PDGF-BB 25 ng/mL, percent of untreated control
Procedure: as §2, §3, §4

[7] = tested on: human aortic endothelial cell (HAEC); assay: VEGF-induced proliferation assay, HAEC (PrxII siRNA); format: cell-based; settings: for Degree of HAEC proliferation: VEGF-A 25 ng/mL, percent of untreated control
Procedure: as §2, with “HAECs” for “HASMCs”, “PAECs” for “PASMCs”, “EBM” for “SmBM”, “VEGF-A” for “PDGF-BB”
as §3
In human aortic endothelial cell (HAEC) and human pulmonary artery endothelial cell (PAEC) in which PrxII was knocked out by transfecting the PrxII siRNA, the ability of test compounds to augment the VEGF-induced proliferation of vascular endothelial cells was evaluated. In Table 7, the degree of proliferation in the compound-treated groups is expressed as percent of the degree of proliferation in untreated control group. The effective concentrations of test compounds increasing cell proliferation by 50% (EC50) is also listed.

Procedure for in vitro: Cytotoxicity tests were performed against vascular endothelial cells, vascular smooth muscle cells and hepatocytes. After treatment with ascending concentrations of each compound, the concentration of test compound corresponding to 50% cell viability (CC50) was measured.

Compound: COc1cc(CN2C(=O)C3(C)SSCC2C(=O)N3C)cc(OC)c1OC (centres unmarked) [Compound 3, 1,8-dimethyl-6-(3,4,5-trimethoxybenzyl)-2,3-dithia-6,8-diazabicyclo[3.2.2]nonane-7,9-dione]
- CC50 (in vitro): 82600 nM
- Midpoint redox potential (E m) [1]: −296 mV
- Peroxidase activity for H2O2 reduction [2]: 4.11 nmol/min

Compound: O=C1C2CSSC3(COCCN13)C(=O)N2Cc1ccncc1 (centres unmarked) [Compound 9, 12-(pyridin-4-ylmethyl)tetrahydro-5H,10H-4,10a-(epiminomethano)[1,4]oxazino[3,4-c][1,2,4]dithiazepin-5,11-dione]
- Peroxidase activity for H2O2 reduction [2]: 5.19 nmol/min

Compound: COC(=O)c1ccc(CN2C(=O)C3CSSC2(C)C(=O)N3C)cc1 (centres unmarked) [Compound 18, Methyl 4-((1,6-dimethyl-7,9-dioxo-2,3-dithia-6,8-diazabicyclo[3.2.2]nonan-8-yl)methyl)benzo ate]
- Peroxidase activity for H2O2 reduction [2]: 4.91 nmol/min

Compound: O=C1C2CSSC3(CCCN13)C(=O)N2Cc1ccncc1 (centres unmarked) [Compound 11, 11-(pyridin-4-ylmethyl)tetrahydro-5H,7H-4,9a-(epiminomethano)pyrrolo[2,1-c][1,2,4]dithiazepine-5,10-dione]
- Peroxidase activity for H2O2 reduction [2]: 4.57 nmol/min

Compound: 6-benzyl-1,4,8-trimethyl-2,3-dithia-6,8-diazabicyclo[3.2.2]nonane-7,9-dione [Compound 25]
- Peroxidase activity for H2O2 reduction [2]: 4.51 nmol/min

Compound: CN1CCN2C(=O)C3CSSC2(C1)C(=O)N3Cc1ccncc1 (centres unmarked) [Compound 22]
- Effect on phosphorylation of Tyr 857 on PDGFR [3]: strongly abolish the phosphorylation
- Peroxidase activity for H2O2 reduction [2]: 7.97 nmol/min

Compound: CCN1C(=O)C23COCCN2C(=O)C1CSS3 (centres unmarked) [Compound 10, 12-ethyltetrahydro-5H,10H-4,10a-(epiminomethano)[1,4]oxazino[3,4-c][1,2,4]dithiaze pine-5,11-dione]
- Effect on phosphorylation of Tyr 857 on PDGFR [3]: strongly abolish the phosphorylation
- Degree of HASMC proliferation ([4]; 2.5 nM): 75.5%
- Degree of HASMC proliferation ([4]; 5 nM): 53.8%
- Degree of HASMC proliferation ([4]; 10 nM): 31.1%
- Degree of HASMC proliferation ([4]; 25 nM): 4.6%
- IC50 ([4]; Homo sapiens, HASMC, 50% growth inhibition, PDGF-stimulated): 5.48 nM
- Effect on phosphorylation of Tyr 1175 on VEGFR2 [5]: strongly abolish the phosphorylation
- Degree of PASMC proliferation ([6]; 2.5 nM): 90.5%
- Degree of PASMC proliferation ([6]; 5 nM): 54.1%
- Degree of PASMC proliferation ([6]; 10 nM): 44.1%
- Degree of PASMC proliferation ([6]; 25 nM): 21.9%
- Degree of PASMC proliferation ([6]; 50 nM): 17.5%
- Degree of PASMC proliferation ([6]; 100 nM): 7.0%
- IC50 ([6]; Homo sapiens, PASMC, 50% growth inhibition, PDGF-stimulated): 8.28 nM
- Midpoint redox potential (E m) [1]: −268.53 mV
- Peroxidase activity for H2O2 reduction [2]: 5.06 nmol/min
- Degree of HAEC proliferation ([7]; 2.5 nM): 111.6%
- Degree of HAEC proliferation ([7]; 5 nM): 122.8%
- Degree of HAEC proliferation ([7]; 10 nM): 127.6%
- Degree of HAEC proliferation ([7]; 25 nM): 140.7%
- Degree of HAEC proliferation ([7]; 50 nM): 175.1%
- Degree of HAEC proliferation ([7]; 100 nM): 159.0%
- EC50 ([7]; Homo sapiens, Endothelial cell, effective concentration increasing cell proliferation by 50%, VEGF-stimulated): 19.3 nM

Compound: CN1C(=O)C2(C)SSCC1C(=O)N2Cc1ncccn1 (centres unmarked) [Compound 16, 1,6-dimethyl-8-(pyrimidin-2-ylmethyl)-2,3-dithia-6,8-diazabicyclo[3.2.2]nonane-7,9-d ione]
- Peroxidase activity for H2O2 reduction [2]: 4.93 nmol/min

Compound: CN1C(=O)C2CSSC1(C)C(=O)N2Cc1ccc(F)cc1F (centres unmarked) [Compound 4]
- CC50 (in vitro): 98000 nM
- Midpoint redox potential (E m) [1]: −292.74 mV
- Peroxidase activity for H2O2 reduction [2]: 3.82 nmol/min

Compound: CN1C(=O)C2(C)SSCC1C(=O)N2Cc1cn(C)cn1 (centres unmarked) [Compound 17, 1,6-dimethyl-8-((1-methyl-1H-imidazol-4-yl)methyl)-2,3-dithia-6,8-diazabicyclo[3.2.2]nonane-7,9-dione]
- Peroxidase activity for H2O2 reduction [2]: 4.80 nmol/min

Compound: CC1SSC2(C)C(=O)N(Cc3ccccc3)C1C(=O)N2C (centres unmarked) [Compound 24, 6-benzyl-1,4,8-trimethyl-2,3-dithia-6,8-diazabicyclo[3.2.2]nonane-7,9-dione]
- Peroxidase activity for H2O2 reduction [2]: 4.26 nmol/min

— US20260008784A1 (VASTHERA CO., LTD., priority 2022, published 2026)
